Results on 3 compounds are retold here after patent EP1792618A1, “R-mirtazapine for the treatment of pain” (Freynhagen, Rainer, priority 2005, dated 2007).

For one assay, the system named is acute thermal pain. Kind of assay: Plantar test (radiant heat, Hargreaves): paw withdrawal latency after intrathecal injection. Format: in vivo, Male Wistar rats. The note with it: for Paw withdrawal latencies: 240 minutes after injection, mean ± sem, vehicle 11.2 ± 0.24 s, cut-off 20 sec; for overall effect on acute thermal pain over the dose range tested: 0.001 to 1 mg/kg intrathecal; for time after injection of the maximum of pro- or antinociception: intrathecal injection. The procedure: The pro- or antinociceptive properties of (+/-)-mirtazapine and its enantiomers R(-)-mirtazapine and S(+)mirtazapine, respectively, were analyzed in acute thermal pain (Hargreaves et al., Pain, 32 (1988) 77-88). Male Wistar rats weighing 350-400 g (housed three per cage, access to foot and water ad libitum, room maintained at 22°C ± 0,5°C and on a 12:12 light- dark cycle) were anesthetized with intraperitoneal (i.p.) injection of pentobarbital (60 mg/kg i.p.). The rats were implanted with polyethylene catheters (inner diameter 0.28 mm, outer diameter 0.61 mm), which were advanced from the cisterna magna to the rostral edge of the lumbar enlargement as described before (Muth-Selbach et al., Anesthesiology, 101 (2004) 753-8; Ahmadi et al., Science, 300, (2003) 2094-2097; Zeilhofer et al., J Neurosci 20 (2000) 4922-9). Rats with impaired motor function after catheter implantation were excluded from the study. Paw withdrawal latencies were tested 6-10 days after surgery at all times in the same air conditioned room. The lateral plantar surface of both hind paws was exposed to a defined radiant heat stimulus through a transparent perspex surface (Plantar Test, Hugo Basile Inc., Italy, Comerio) and paw withdrawal latencies were recorded (Hargreaves et al., op.cit.). The animal is unrestrained and unhandled during experiments. When the rat feels pain and withdraws its paw, the sudden drop of reflected radiation switches off the I.R. source and stops the reaction time counter so that the withdrawal latency to the nearest 0.1 s is determined. Paw withdrawal latencies of both hind paws were determined from 4 independent measurements for each time point. A cut-off time of 20 sec was set to avoid tissue damage.
Behavior as described above was tested before and 120, 240 min and 24 hours after application of either substance. In order to find the maximum effect over time, groups of 4 animals were tested before and 30, 60, 120, 180, 240 min and 24 hours after application of 0.1 mg/kg (+/-)-mirtazapine.
(+/-)-Mirtazapine, R(-)-mirtazapine, S(+)mirtazapine or vehicle (0.9% NaCl) were applied to the cerebrospinal fluid via intrathecal catheters in a total volume of 10 µl. Rats were randomly assigned to the different treatment groups consisting of 6 to 9 rats each. All behavioral observations were performed in a standardized blinded fashion.
After the behavioral tests, rats were sacrificed by a lethal dose of pentobarbital i.p.. Proper position of the catheter tip was verified after laminectomy and methylene blue injection through the catheter. All behavioral tests were performed with permission of the German authorities concerned with the law on experiments involving animals and were in accordance with the guidelines of the International Association for the Study of Pain.
(+/-)-Mirtazapine (1, 2, 3, 4, 10, 14b-Hexahydro-2-methyl-pyrazino-[2, 1-a] pyrido [2, 3-c] [2] benzazepin, free base), R(-)-mirtazapine and S(+)-mirtazapine maleate salt were generously donated by N.V. Organon, Oss (The Netherlands) and were of the highest quality available. All chemicals were dissolved in 0.9 % NaCl and stored in aliquots at - 70°C. Fresh dilutions were made with 0.9 % NaCl on every experimental day.
Group data are presented as mean + standard error of the mean(sem). Withdrawal latencies in the different treatment groups were analyzed by analysis of variance (repeated measurements) followed by LSD post hoc tests (SAS Software System). P ≤ 0.05 was assumed significant. In detail, for each dose (i.e. 1, 0.1, 0.01 and 0.001 mg/kg) twelve comparisons were made at five time points.

Assay [1] has as its system hypothermic response to a 5-HT1-agonist. The settings on record: normal rats, chronic administration; compared with one of the enantiomers alone; cited from earlier work.
For assay [2], the system named is acute nociceptive responses. The note with it: rats; cited from earlier work.
For a further assay, the system named is neuropathic pain. The settings on record: chronic constriction injury model, rats; cited from earlier work.
In another assay the test system is thermal pain. The note with it: 3-30 mg/kg intraperitoneally, rats; cited from earlier work.
Assay [3] concerns α2-adrenergic autoreceptors. The note with it: compared with R(-)-mirtazapine; cited from earlier work.
The mark [4] stands for this setting: 0.001 mg/kg intrathecal (lowest dose).
[5] abbreviates: 0.01 mg/kg intrathecal, time points 120, 240 minutes, 24 hours as stated per substance.
Where [6] appears, read: 0.1 mg/kg intrathecal, time points 120, 240 minutes, 24 hours as stated per substance.
The mark [7] stands for this setting: 1 mg/kg intrathecal, time points 120, 240 minutes, 24 hours as stated per substance.

Structures are written as SMILES.

For `CN1CCN2c3ncccc3Cc3ccccc3C2C1` (racemic) [(+/-)-mirtazapine, 1,2,3,4, 10, 14b-Hexahydro-2-methyl-pyrazino-[2,1-a] pyrido [2,3-c] [2] benzazepin], the “pro- or antinociceptive effect” value in the assay on acute thermal pain (setting [4]) is recorded as “neither pro- nor antinociceptive”; in the assay on acute thermal pain (setting [5]) it was “antinociceptive”; in the assay on acute thermal pain (setting [6]) it was “antinociceptive”; with acute thermal pain (setting [7]), “profound pronociceptive effect”. Moreover, the Paw withdrawal latencies is on record as 11.5 ± 0.9 s with acute thermal pain (0.001 mg/kg intrathecal), 14.5 ± 1.0 s in the assay with acute thermal pain (0.01 mg/kg intrathecal), 14.4 ± 0.3 s in the assay with acute thermal pain (0.1 mg/kg intrathecal) and 6.9 ± 0.4 s in the assay on acute thermal pain (1 mg/kg intrathecal). Moreover, the “overall effect on acute thermal pain over the dose range tested” value (“overall effect … over the dose range tested” for short) with acute thermal pain is given as “dose-dependently exerted pro- and- antinociceptive activity”. In the assay with acute thermal pain, the “time after injection of the maximum of pro- or antinociception” value (“time after injection” below) was 240 min. Also, in assay [1], the “hypothermic response to a 5-HT1-agonist” value is listed as “potentiated”. In assay [2], the “acute nociceptive responses in the tail flick test” value is “did not affect”. The mechanical allodynia result in the assay on neuropathic pain is “not”. Further, the mechanical hyperalgesia entry with neuropathic pain is given as “significantly attenuated”. In addition, in the assay on neuropathic pain, the thermal hyperalgesia result is “significantly attenuated”. The “antinociceptive activity in thermal pain (hot plate)” value in the assay with thermal pain is “exhibited antinociceptive activity”.
Regarding `CN1CCN2c3ncccc3Cc3ccccc3[C@@H]2C1` [R(-)-mirtazapine], the “pro- or antinociceptive effect” value is on record as “neither pro- nor antinociceptive” with acute thermal pain (setting [4]), “antinociceptive” with acute thermal pain (setting [5]), “antinociceptive” with acute thermal pain (setting [6]) and “antinociceptive” in the assay with acute thermal pain (setting [7]). Moreover, the Paw withdrawal latencies in the assay on acute thermal pain (0.001 mg/kg intrathecal) is on record as 11.3 ± 0.9 s; with acute thermal pain (0.01 mg/kg intrathecal), 15.6 ± 0.6 s; in the assay with acute thermal pain (0.1 mg/kg intrathecal) it was 13.8 ± 0.4 s; in the assay on acute thermal pain (1 mg/kg intrathecal) it was 13.5 ± 0.5 s. Moreover, the “overall effect … over the dose range tested” value with acute thermal pain is “only elicited antinociceptive effects”. Moreover, the “time after injection” value in the assay with acute thermal pain is 240 min.
In the case of `CN1CCN2c3ncccc3Cc3ccccc3[C@H]2C1` [S(+)-mirtazapine], the “pro- or antinociceptive effect” value in the assay on acute thermal pain (setting [4]) is “neither pro- nor antinociceptive”; in the assay with acute thermal pain (setting [5]), “pronociceptive”; in the assay on acute thermal pain (setting [6]), “pronociceptive”; in the assay on acute thermal pain (setting [7]), “pronociceptive”. Further, the Paw withdrawal latencies in the assay on acute thermal pain (0.001 mg/kg intrathecal) turned out to be 8.7 ± 0.8 s; in the assay on acute thermal pain (0.01 mg/kg intrathecal), 8.4 ± 1.1 s; in the assay on acute thermal pain (0.1 mg/kg intrathecal) it was 8.1 ± 1.0 s; in the assay on acute thermal pain (1 mg/kg intrathecal) it was 7.4 ± 0.4 s. The “overall effect … over the dose range tested” value with acute thermal pain was “exclusively pronociceptive”. In the assay on acute thermal pain, the “time after injection” value is 240 min. Also, the “potency as blocker of α2-adrenergic autoreceptors” value in assay [3] is reported as “more potent blocker”.
